This note sets out measurements from US20260035382A1, “COMPOUNDS AS SUMO ACTIVATING ENZYME INHIBITORS” (WIGEN BIOMEDICINE TECHNOLOGY (SHANGHAI) CO., LTD., priority 2022, published 2026).

Sequence of SAE (Q9UBT2 whole entry): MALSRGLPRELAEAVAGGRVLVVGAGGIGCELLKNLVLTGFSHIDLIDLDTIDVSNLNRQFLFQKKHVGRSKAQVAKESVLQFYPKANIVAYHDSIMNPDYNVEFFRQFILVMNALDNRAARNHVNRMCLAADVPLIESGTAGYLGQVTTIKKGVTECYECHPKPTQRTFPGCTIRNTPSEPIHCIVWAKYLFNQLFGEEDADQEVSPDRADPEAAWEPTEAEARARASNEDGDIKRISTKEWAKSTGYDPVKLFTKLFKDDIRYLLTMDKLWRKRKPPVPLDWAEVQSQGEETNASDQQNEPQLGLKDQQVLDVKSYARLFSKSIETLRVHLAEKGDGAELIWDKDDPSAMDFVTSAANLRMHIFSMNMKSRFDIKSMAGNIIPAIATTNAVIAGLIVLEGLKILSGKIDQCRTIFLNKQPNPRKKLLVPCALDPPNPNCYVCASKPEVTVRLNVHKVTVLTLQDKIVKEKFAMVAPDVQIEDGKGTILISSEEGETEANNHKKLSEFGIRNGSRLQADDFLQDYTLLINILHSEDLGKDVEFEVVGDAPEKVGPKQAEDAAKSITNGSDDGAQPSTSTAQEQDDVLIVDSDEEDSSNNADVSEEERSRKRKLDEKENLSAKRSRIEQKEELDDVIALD
Sequence of SAE (Q9UBE0 whole entry partner): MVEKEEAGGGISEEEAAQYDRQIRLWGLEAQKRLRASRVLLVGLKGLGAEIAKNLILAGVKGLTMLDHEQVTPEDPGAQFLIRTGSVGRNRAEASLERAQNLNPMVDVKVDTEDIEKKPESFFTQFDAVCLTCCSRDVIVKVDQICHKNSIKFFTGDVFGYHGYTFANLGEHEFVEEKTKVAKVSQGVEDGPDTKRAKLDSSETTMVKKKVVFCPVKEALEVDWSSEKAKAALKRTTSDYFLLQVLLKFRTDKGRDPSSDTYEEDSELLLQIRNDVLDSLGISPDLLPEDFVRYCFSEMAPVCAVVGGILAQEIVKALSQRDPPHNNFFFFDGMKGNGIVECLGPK

One experiment concerns the target SAE (Homo sapiens (Human), UniProt Q9UBT2). Briefly: In vitro inhibitory activity assay against SAE (SUMO-2/3 immunofluorescence in HCT116 cells). In kind it is cell-based. Conditions: 6 h incubation, class symbols, read-out: SUMO IF IC50. In outline:
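HCT116 cells treated with compounds for 6 h at 37 °C, then fixed, permeabilized and immunostained for SUMO-2/3 with FITC secondary detection. Fluorescence compared with DMSO control to give inhibition rate and IC50.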
For the compound `CCN1Cc2sc(C(=O)c3cncnc3N[C@@H]3C[C@H](COS(N)(=O)=O)[C@@H](O)C3)cc2[C@@]2(C1)OCCc1ccc(Cl)cc12` [Compound 266], the IC50 was above 200 nM.
On the same count and under the same terms, the figure for `NS(=O)(=O)OC[C@H]1C[C@@H](Nc2ncncc2C(=O)c2cc3c(s2)CN(CC(F)(F)F)CC32NCCc3ccc(Cl)cc32)C[C@@H]1O` (stereo partly shown) [Compound 187] is at most 50 nM; for `N#Cc1ccc2c(c1)[C@]1(C=Cc3sc(C(=O)c4cncnc4N[C@@H]4C[C@H](COS(N)(=O)=O)[C@@H](O)C4)cc31)OCC2` [Compound 299] it is above 200 nM.
For the compound `NS(=O)(=O)OC[C@H]1C[C@@H](Nc2ncncc2C(=O)c2cc3c(s2)CCCC32NCCc3cc(F)c(Cl)cc32)C[C@@H]1O` (stereo partly shown) [Compound 27], the 50% inhibitory concentration (IC50) is at most 50 nM.
For the compound `NS(=O)(=O)OC[C@H]1C[C@@H](Nc2ncncc2C(=O)c2cc3c(s2)CNC[C@@]32NCCc3ccc(Cl)cc32)C[C@@H]1O` [Compound 119], the IC50 is above 200 nM.
As to `CN1CCc2ccc(Cl)cc2C12CCCc1sc(C(=O)c3cncnc3N[C@@H]3C[C@H](COS(N)(=O)=O)[C@@H](O)C3)cc12` (stereo partly shown) [Compound 130], the IC50 fell in the range of 50 to 200 nM.
On to `NS(=O)(=O)OC[C@H]1C[C@@H](Nc2ncncc2C(=O)c2cc3c(s2)COCC32NCCc3ccccc32)C[C@@H]1O` (stereo partly shown) [Compound 13], for which the IC50 was above 200 nM.
Consider `NS(=O)(=O)OC[C@H]1C[C@@H](Nc2ncncc2C(=O)c2nc3c(s2)CSC[C@@]32NCCc3ccc(Cl)cc32)C[C@@H]1O` [Compound 128], for which the IC50 was above 200 nM.
As for `NS(=O)(=O)OC[C@H]1C[C@@H](Nc2ncncc2C(=O)c2cc3c(s2)C=C[C@@]32OCCc3ccc(F)cc32)C[C@@H]1O` [Compound 293], the IC50 is above 200 nM.
The same measure, in the same setting: the figure for `NS(=O)(=O)OC[C@H]1C[C@@H](Nc2ncncc2C(=O)c2cc3c(s2)CN(C2CC2)CC32NCCc3ccc(Cl)cc32)C[C@@H]1O` (stereo partly shown) [Compound 115] is at most 50 nM; for `NS(=O)(=O)OC[C@H]1C[C@@H](Nc2ncncc2C(=O)c2cc3c(s2)CCC[C@]32NCCc3cc(Cl)ncc32)C[C@@H]1O` [Compound 215] it is 50 to 200 nM.
Take `N#Cc1cc2c(cc1Cl)[C@@]1(CCCc3sc(C(=O)c4cncnc4N[C@@H]4C[C@H](COS(N)(=O)=O)[C@@H](O)C4)cc31)NCC2` [Compound 210]: the IC50 is at most 50 nM.
Still for that read-out and setting: under `NS(=O)(=O)OC[C@H]1C[C@@H](Nc2ncncc2C(=O)c2cc3c(s2)OC[C@]32NCCc3ccc(Cl)cc32)C[C@@H]1O` [Compound 63] stands 50 to 200 nM; under `CCN1Cc2sc(C(=O)c3cncnc3N[C@@H]3C[C@H](COS(N)(=O)=O)[C@@H](O)C3)cc2C2(C1)OCCc1ccc(Cl)cc12` (stereo partly shown) [Compound 265], at most 50 nM.
Same read-out and setting: the figure for `NS(=O)(=O)OC[C@H]1C[C@@H](Nc2ncncc2C(=O)c2cc3c(s2)CCC[C@]32NC(=O)Cc3ccc(Cl)cc32)C[C@@H]1O` [Compound 165] is above 200 nM; for `N#Cc1ccc2c(c1)[C@]1(CCc3sc(C(=O)c4cncnc4N[C@@H]4C[C@H](COS(N)(=O)=O)[C@@H](O)C4)cc31)NCC2` [Compound 53] it is above 200 nM; for `N#Cc1cc2c(cc1Cl)C1(CCc3sc(C(=O)c4cncnc4N[C@@H]4C[C@H](COS(N)(=O)=O)[C@@H](O)C4)cc31)NCC2` (stereo partly shown) [Compound 72] it is 50 to 200 nM.
The same measure, in the same setting: under `NS(=O)(=O)OC[C@H]1C[C@@H](Nc2ncncc2C(=O)c2cc3c(s2)CCC[C@]32OCCc3ccc(Cl)cc32)C[C@@H]1O` [Compound 222] stands at most 50 nM; under `NS(=O)(=O)OC[C@H]1C[C@@H](Nc2ncncc2C(=O)c2cc3c(s2)COC[C@@]32NCCc3cc(F)c(Cl)cc32)C[C@@H]1O` [Compound 107], above 200 nM.
In the case of `[2H]C1([2H])Cc2ccc(Cl)cc2[C@@]2(C=Cc3sc(C(=O)c4cncnc4N[C@@H]4C[C@H](COS(N)(=O)=O)[C@@H](O)C4)cc32)N1` [Compound 237], the IC50 was at most 50 nM.
`NS(=O)(=O)OC[C@H]1C[C@@H](Nc2ncncc2C(=O)c2cc3c(s2)CC[C@]32NCCc3ccncc32)C[C@@H]1O` [Compound 235]: the IC50 is 50 to 200 nM.
Still for that read-out and setting: the figure for `NS(=O)(=O)OC[C@H]1C[C@@H](Nc2ncncc2C(=O)c2cc3c(s2)CN(C2CC2)C[C@@]32OCCc3ccc(Cl)cc32)C[C@@H]1O` [Compound 278] is above 200 nM.
On the same count and under the same terms, the figure for `N#Cc1ccc2c(c1)[C@@]1(CCCc3sc(C(=O)c4cncnc4N[C@@H]4C[C@H](COS(N)(=O)=O)[C@@H](O)C4)cc31)OCC2` [Compound 252] is at most 50 nM; for `N#Cc1ccc2c(c1)C1(C=Cc3sc(C(=O)c4cncnc4N[C@@H]4C[C@H](COS(N)(=O)=O)[C@@H](O)C4)cc31)OCC2` (stereo partly shown) [Compound 298] it is 50 to 200 nM.
Turning to `NS(=O)(=O)OC[C@H]1C[C@@H](Nc2ncncc2C(=O)c2cc3c(s2)CCC[C@]32NC3(CC3)Cc3ccc(Cl)cc32)C[C@@H]1O` [Compound 220], the IC50 is 50 to 200 nM.
Still for that read-out and setting: under `NS(=O)(=O)OC[C@H]1C[C@@H](Nc2ncncc2C(=O)c2cc3c(s2)C=CC32NCCc3ccc(Cl)cc32)C[C@@H]1O` (stereo partly shown) [Compound 78] stands at most 50 nM.
For the compound `NS(=O)(=O)OC[C@H]1C[C@@H](Nc2ncncc2C(=O)c2cc3c(s2)CCCC32NCCc3ccccc32)C[C@@H]1O` (stereo partly shown) [Compound 1], the IC50 was 50 to 200 nM.
Turning to `CN1CCc2ccc(Cl)cc2[C@@]12CCCc1sc(C(=O)c3cncnc3N[C@@H]3C[C@H](COS(N)(=O)=O)[C@@H](O)C3)cc12` [Compound 132], the IC50 fell in the range of 50 to 200 nM.
For the compound `NS(=O)(=O)OC[C@H]1C[C@@H](Nc2ncncc2C(=O)c2cc3c(s2)CCC[C@]32OCCc3ccc(F)cc32)C[C@@H]1O` [Compound 249], the IC50 was at most 50 nM.
In the case of `N#Cc1ccc2c(c1)[C@@]1(CCc3sc(C(=O)c4cncnc4N[C@@H]4C[C@H](COS(N)(=O)=O)[C@@H](O)C4)cc31)NCC2` [Compound 54], the IC50 lay in the range of 50 to 200 nM.
Still for that read-out and setting: under `NS(=O)(=O)OC[C@H]1C[C@@H](Nc2ncncc2C(=O)c2cc3c(s2)CO[C@]32NCCc3ccc(Cl)cc32)C[C@@H]1O` [Compound 239] stands 50 to 200 nM.
In the case of `NS(=O)(=O)OC[C@H]1C[C@@H](Nc2ncncc2C(=O)c2cc3c(s2)CCCC32NCC(=O)c3ccc(Cl)cc32)C[C@@H]1O` (stereo partly shown) [Compound 41], the IC50 was in the range of 50 to 200 nM.
Take `NS(=O)(=O)OC[C@H]1C[C@@H](Nc2ncncc2C(=O)c2cc3c(s2)CSCC32NCCc3ccc(F)cc32)C[C@@H]1O` (stereo partly shown) [Compound 88]: the IC50 is at most 50 nM.
Still for that read-out and setting: the figure for `NS(=O)(=O)OC[C@H]1C[C@@H](Nc2ncncc2C(=O)c2cc3c(s2)OC[C@]32NCCc3ccccc32)C[C@@H]1O` [Compound 57] is 50 to 200 nM; for `NS(=O)(=O)OC[C@H]1C[C@@H](Nc2ncncc2C(=O)c2cc3c(s2)CSCC32NCCc3cnc(Cl)cc32)C[C@@H]1O` (stereo partly shown) [Compound 142] it is 50 to 200 nM; for `NS(=O)(=O)OC[C@H]1C[C@@H](Nc2ncncc2C(=O)c2cc3c(s2)CCC[C@]32NCCc3cc(F)c(F)cc32)C[C@@H]1O` [Compound 206] it is at most 50 nM.
The same measure, in the same setting: under `NS(=O)(=O)OC[C@H]1C[C@@H](Nc2ncncc2C(=O)c2cc3c(s2)C(F)(F)CC32NCCc3ccc(Cl)cc32)C[C@@H]1O` (stereo partly shown) [Compound 160] stands 50 to 200 nM.
Still for that read-out and setting: the figure for `NS(=O)(=O)OC[C@H]1C[C@@H](Nc2ncncc2C(=O)c2cc3c(s2)CNCC32NCCc3ccc(Cl)cc32)C[C@@H]1O` (stereo partly shown) [Compound 118] is 50 to 200 nM; for `NS(=O)(=O)OC[C@H]1C[C@@H](Nc2ncncc2C(=O)c2cc3c(s2)CN(C2CC2)C[C@]32OCCc3ccc(F)cc32)C[C@@H]1O` [Compound 276] it is at most 50 nM.
`NS(=O)(=O)OC[C@H]1C[C@@H](Nc2ncncc2C(=O)c2cc3c(s2)CSC[C@]32NCCc3ccc(Cl)nc32)C[C@@H]1O` [Compound 147]: the IC50 is at most 50 nM.
Regarding `NS(=O)(=O)OC[C@H]1C[C@@H](Nc2ncncc2C(=O)c2cc3c(s2)CCC32OCCc3ccc(F)cc32)C[C@@H]1O` (stereo partly shown) [Compound 283], the IC50 lay in the range of 50 to 200 nM.
On the same count and under the same terms, the figure for `NS(=O)(=O)OC[C@H]1C[C@@H](Nc2ncncc2C(=O)c2cc3c(s2)CCC[C@@]32OCCc3ccc(Cl)cc32)C[C@@H]1O` [Compound 221] is above 200 nM; for `NS(=O)(=O)OC[C@H]1C[C@@H](Nc2ncncc2C(=O)c2cc3c(s2)CC[C@@]32OCCc3ccc(F)cc32)C[C@@H]1O` [Compound 284] it is above 200 nM.

Still in this experiment, the particulars now being: 6 h incubation, numeric values, read-out: SUMO IF IC50.
Take `NS(=O)(=O)OC[C@H]1C[C@@H](Nc2ncncc2C(=O)c2cc3c(s2)CN(CC(F)(F)F)C[C@]32NCCc3ccc(Cl)cc32)C[C@@H]1O` [Compound 189]: the IC50 amounted to 24.5 nM.
Take `NS(=O)(=O)OC[C@H]1C[C@@H](Nc2ncncc2C(=O)c2cc3c(s2)CSC[C@@]32NCCc3ccc(Cl)cc32)C[C@@H]1O` [Compound 92]: the IC50 was above 1000 nM.
Same read-out and setting: under `C=CCN1Cc2sc(C(=O)c3cncnc3N[C@@H]3C[C@H](COS(N)(=O)=O)[C@@H](O)C3)cc2[C@]2(C1)NCCc1ccc(Cl)cc12` [Compound 192] stands 25.1 nM; under `CC(C)N1Cc2sc(C(=O)c3cncnc3N[C@@H]3C[C@H](COS(N)(=O)=O)[C@@H](O)C3)cc2[C@@]2(C1)NCCc1ccc(Cl)cc12` [Compound 185], above 1000 nM.
As for `C=CCN1Cc2sc(C(=O)c3cncnc3N[C@@H]3C[C@H](COS(N)(=O)=O)[C@@H](O)C3)cc2[C@@]2(C1)NCCc1ccc(Cl)cc12` [Compound 191], the IC50 is above 1000 nM.
Same read-out and setting: the figure for `NS(=O)(=O)OC[C@H]1C[C@@H](Nc2ncncc2C(=O)c2cc3c(s2)COC[C@@]32NCCc3ccc(F)cc32)C[C@@H]1O` [Compound 17] is above 1000 nM.
On the same count and under the same terms, the figure for `CCN1Cc2sc(C(=O)c3cncnc3N[C@@H]3C[C@H](COS(N)(=O)=O)[C@@H](O)C3)cc2[C@]2(C1)NCCc1ccc(Cl)cc12` [Compound 183] is 18.7 nM; for `NS(=O)(=O)OC[C@H]1C[C@@H](Nc2ncncc2C(=O)c2cc3c(s2)CC[C@]32NCCc3ccccc32)C[C@@H]1O` [Compound 45] it is 125 nM.
In the case of `CCN1Cc2sc(C(=O)c3cncnc3N[C@@H]3C[C@H](COS(N)(=O)=O)[C@@H](O)C3)cc2[C@@]2(C1)NCCc1ccc(Cl)cc12` [Compound 182], the IC50 is above 1000 nM.
